According to patent publication US20050004126A1 (priority 2001, published 2005):
Where two headings read alike, the source gives them in different places.

Key:
[1] = molecular target: MMP-3CD (catalytic domain of stromelysin) (Homo sapiens, UniProt P08254); assay: Thiopeptolide hydrolysis assay, MMP-3; format: biochemical;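 note: inhibition of thiopeptolide substrate (100 µM) cleavage by the MMP-3 catalytic domain, detected with DTNB at pH 6.0 with CaCl2, hydrolysis compared against runs lacking inhibitor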
[2] = molecular target: MMP-13CD (catalytic domain of collagenase 3) (Homo sapiens, UniProt P45452); assay: Thiopeptolide hydrolysis assay, MMP-13;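 note: inhibition of enzymatic thiopeptolide substrate cleavage (100 µM) in pH 6.0 MES buffer with CaCl2 and DTNB, comparing hydrolysis with versus without inhibitor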
Description: (§1) They measure the amount by which a test compound reduces the hydrolysis of a thiopeptolide substrate caused by a matrix metalloproteinase enzyme.
Thiopeptolide substrates show virtually no decomposition or hydrolysis in the absence of a matrix metalloproteinase enzyme. A typical thiopeptolide substrate commonly utilized for assays is Ac-Pro-Leu-Gly-thioester-Leu-Leu-Gly-OEt. A 100 μL assay mixture will contain 50 mM of 2-morpholinoethane sulfonic acid monohydrate (MES, pH 6.0) 10 mM CaCl2, 100 μM thiopeptolide substrate, and 1 mM 5,5′-dithio-bis-(2-nitro-benzoic acid) (DTNB). […] Assays are carried out with and without matrix metalloproteinase inhibitor compounds, and the amount of hydrolysis is compared for a determination of inhibitory activity of the test compounds.

[3] = molecular target: T1, MMP-1FL (full-length interstitial collagenase) (Homo sapiens, UniProt P03956); assay: Thiopeptolide hydrolysis assay, MMP-1; format: biochemical; conditions: read-out: MMP01 IC50
T1 sequence (P03956 100-469): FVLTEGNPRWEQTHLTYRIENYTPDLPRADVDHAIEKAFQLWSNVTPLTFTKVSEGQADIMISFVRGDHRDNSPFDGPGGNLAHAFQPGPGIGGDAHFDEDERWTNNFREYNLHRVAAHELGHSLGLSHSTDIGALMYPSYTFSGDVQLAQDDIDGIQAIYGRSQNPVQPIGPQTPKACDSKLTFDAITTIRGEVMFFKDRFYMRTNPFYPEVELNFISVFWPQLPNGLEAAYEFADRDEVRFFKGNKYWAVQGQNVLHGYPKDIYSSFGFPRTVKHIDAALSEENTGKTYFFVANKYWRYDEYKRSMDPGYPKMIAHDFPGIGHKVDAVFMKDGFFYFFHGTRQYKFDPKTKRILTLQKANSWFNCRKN
Description: as §1
Thiopeptolide substrates show virtually no decomposition or hydrolysis in the absence of a matrix metalloproteinase enzyme. A typical thiopeptolide substrate commonly utilized for assays is Ac-Pro-Leu-Gly-thioester-Leu-Leu-Gly-OEt. A 100 μL assay mixture will contain 50 mM of 2-morpholinoethane sulfonic acid monohydrate (MES, pH 6.0) 10 mM CaCl2, 100 μM thiopeptolide substrate, and 1 mM 5,5′-dithio-bis-(2-nitro-benzoic acid) (DTNB). […] The change in absorbance at 405 nm is monitored on a Thermo Max microplate reader (moleucular Devices, Menlo Park, Calif.) at room temperature (22° C.). […] Assays are carried out with and without matrix metalloproteinase inhibitor compounds, and the amount of hydrolysis is compared for a determination of inhibitory activity of the test compounds.

Sequence of MMP-3CD (catalytic domain of stromelysin) (P08254 100-272 limits assumed): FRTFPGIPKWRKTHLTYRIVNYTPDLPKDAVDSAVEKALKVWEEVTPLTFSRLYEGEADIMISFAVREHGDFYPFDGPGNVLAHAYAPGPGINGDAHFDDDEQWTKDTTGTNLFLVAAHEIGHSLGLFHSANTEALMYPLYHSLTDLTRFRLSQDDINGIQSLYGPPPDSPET

Structure (SMILES) | IC50 ([1]; Table II, read-out: MMP03 IC50) [nM] | IC50 ([2]; MMP13 IC50 (nM), Table II) [nM] | IC50 ([3]; Table II) [µM] | IC50 ([1]; Table 1b, read-out: MMP03 IC50) [nM] | IC50 ([2]; MMP13 IC50 (μM), Table 1b) [nM] | IC50 ([3]; Table 1b) [µM] | IC50 ([1]; MMP03 IC50 (nM), Table II) [nM]
COc1ccc(CNC(=O)c2ccc(OC)c(C(=O)NCc3ccc(OC)cc3)c2)cc1 | > 100000 | 280 | > 100 |  |  |  | 
COC(=O)COc1ccc(C(=O)OCc2ccccc2)cc1C(=O)OCc1ccccc1 | > 100000 | 9250 | > 100 |  |  |  | 
COC(=O)c1ccc(Cn2c(=O)c(C)c3sc(C(=O)NCc4cccc(F)c4)cn3c2=O)cc1 |  |  |  | 19000 | 71.5 | > 30 | 
COC(=O)c1ccc(Cn2c(=O)c(C)c3sc(C(=O)NCc4ccc(F)cc4)cn3c2=O)cc1 |  |  |  | 17000 | 18 | > 100 | 
COC(=O)c1ccc(Cn2c(=O)c(C)c3sc(C(=O)NCc4ccc(OC)cc4)cn3c2=O)cc1 |  |  |  | 65000 | 10.6 | > 100 | 
Cc1c(=O)n(Cc2ccc(C(=O)O)cc2)c(=O)n2cc(C(=O)NCc3ccc(F)cc3)sc12 |  |  |  | 68000 | 2.2 | > 100 | 
COC(=O)c1ccc(CNC(=O)c2cccc(C(=O)NCc3cccc(OC)c3)c2)cc1 | 64000 | 255 | > 100 |  |  |  | 
COc1cccc(CNC(=O)c2cccc(C(=O)NCc3ccc(C(=O)O)cc3)c2)c1 | > 100000 | 77 | > 100 |  |  |  | 
O=C(OCc1ccccc1)C1C[S+]([O-])c2cc(=O)n(Cc3ccccc3)c(=O)n21 (stereo not drawn) |  |  |  | 23000 | 72 | > 100 | 
O=C(NCc1ccncc1)C1Cn2c(cc(=O)n(Cc3ccccc3)c2=O)S1 (stereo not drawn) |  |  |  | > 100000 | 590 | > 100 | 
COc1ccc(CNC(=O)c2cn3c(=O)n(Cc4ccccc4)c(=O)c(C=O)c3s2)cc1 |  |  |  | 11000 | 22.4 | > 100 | 
Cc1c(=O)n(Cc2ccccc2)c(=O)n2cc(C(=O)NCc3ccccc3)sc12 |  |  |  | 51000 | 94 | > 100 | 
COc1cccc(CNC(=O)c2cn3c(=O)n(Cc4ccccc4)c(=O)c(C)c3s2)c1 |  |  |  | 22000 | 6 | > 30 | 
Cc1c(=O)n(Cc2ccccc2)c(=O)n2cc(C(=O)NCc3ccc(Cl)c(Cl)c3)sc12 |  |  |  | 20000 | 265 | > 30 | 
COc1ccc(CNC(=O)c2cn3c(=O)n(Cc4ccccc4)c(=O)c(C)c3s2)cn1 |  |  |  | > 10000 | 17.5 | > 30 | 
Cc1c(=O)n(Cc2ccccc2)c(=O)n2cc(C(=O)NCc3ccc(F)cc3)sc12 |  |  |  | > 100000 | 24.5 | > 30 | 
Cc1cccc(CNC(=O)c2cn3c(=O)n(Cc4ccccc4)c(=O)c(C)c3s2)c1 |  |  |  | 19000 | 25 | > 100 | 
Cc1c(=O)n(Cc2ccccc2)c(=O)n2cc(C(=O)NCc3ccc(C(F)(F)F)cc3)sc12 |  |  |  | > 100000 | 2210 | > 30 | 
COc1ccc(CNC(=O)c2cn3c(=O)n(Cc4ccccc4)c(=O)c(C)c3s2)cc1F |  |  |  | 12000 | 25 | > 100 | 
Cc1c(=O)n(Cc2ccccc2)c(=O)n2cc(C(=O)NCc3cccc(F)c3)sc12 |  |  |  | > 30000 | 120 | > 30 | 
Cc1ccc(CNC(=O)c2cn3c(=O)n(Cc4ccccc4)c(=O)c(C)c3s2)cc1 |  |  |  | 19000 | 225 | > 30 | 
Cc1c(=O)n(Cc2ccccc2)c(=O)n2cc(C(=O)NCc3ccc(Cl)cc3)sc12 |  |  |  | 23000 | 86.9 | > 30 | 
Cc1c(=O)n(Cc2ccccc2)c(=O)n2cc(C(=O)NCc3ccc(F)c(F)c3)sc12 |  |  |  | > 30000 | 29 | > 100 | 
COc1ccc(CNC(=O)c2cn3c(=O)n(Cc4ccccc4)c(=O)c(C)c3s2)cc1 |  |  |  | 16000 | 21.7 | > 30 | 
Cc1c(=O)n(Cc2ccccc2)c(=O)n2cc(C(=O)NCc3ccc(OC(F)(F)F)cc3)sc12 |  |  |  | > 100000 | 815 | > 30 | 
O=C(NCc1ccc(Cl)c(Cl)c1)c1cn2c(=O)n(Cc3ccc(Cl)cc3)c(=O)cc2s1 |  |  |  | > 100000 | 4300 | > 30 | 
Cc1c(=O)n(Cc2ccc(C#N)cc2)c(=O)n2cc(C(=O)NCc3ccc(F)cc3)sc12 |  |  |  | 25000 | 23 | > 100 | 
Cc1c(=O)n(Cc2ccccc2)c(=O)n2cc(C(=O)NCc3cccnc3)sc12 |  |  |  | > 30000 | 225 | > 100 | 

Structure (SMILES) | IC50 ([1]; Table II, read-out: MMP03 IC50) [nM] | IC50 ([2]; MMP13 IC50 (nM), Table II) [nM] | IC50 ([3]; Table II) [µM] | IC50 ([1]; Table 1b, read-out: MMP03 IC50) [nM] | IC50 ([2]; MMP13 IC50 (μM), Table 1b) [nM] | IC50 ([3]; Table 1b) [µM] | IC50 ([1]; MMP03 IC50 (nM), Table II) [nM]
COc1ccc(CNC(=O)c2cccc(C(=O)NCc3ccc4c(c3)OCO4)c2)cc1 |  | 1650 | > 100 |  |  |  | > 100000
O=C(NCc1ccccc1)c1cccc(C(=O)NCc2ccc3c(c2)OCO3)c1 | > 100000 | 1900 | > 100 |  |  |  | 
O=C(NCc1ccc2c(c1)OCO2)c1cccc(C(=O)NCc2ccco2)c1 | > 100000 | 3400 | > 100 |  |  |  | 
COc1cccc(CNC(=O)c2cccc(C(=O)OCc3ccc(C(=O)O)cc3)c2)c1 | > 100000 | 44 | > 100 |  |  |  | 
COc1cccc(CNC(=O)c2cccc(C(=O)NCc3cccc(N)c3)c2)c1 | > 100000 | 935 | > 100 |  |  |  | 
COc1cccc(CNC(=O)c2cccc(C(=O)NCc3ccc(C)cc3)c2)c1 | 76000 | 385 | > 100 |  |  |  | 
COc1cccc(CNC(=O)c2cccc(C(=O)NCc3ccc([N+](=O)[O-])cc3)c2)c1 | > 100000 | 1140 | > 100 |  |  |  | 
COc1cccc(CNC(=O)c2cccc(C(=O)NCc3cccnc3)c2)c1 | > 100000 | 7930 | > 100 |  |  |  | 
COc1cccc(CNC(=O)c2cccc(C(=O)NCc3ccncc3)c2)c1 | > 100000 | 1400 | > 100 |  |  |  | 
COc1cccc(CNC(=O)c2cccc(C(=O)NCc3ccc(Cl)c(Cl)c3)c2)c1 | 68000 | 555 | > 100 |  |  |  | 
COc1cccc(CNC(=O)c2cccc(C(=O)NCc3ccc(Cl)cc3)c2)c1 | > 100000 | 503 | > 100 |  |  |  | 
COc1ccc(CNC(=O)c2cccc(C(=O)NCc3cccc(OC)c3)c2)cc1 | 40000 | 415 | > 100 |  |  |  | 
O=C(NCc1cccnc1)c1cccc(C(=O)NCc2ccc3c(c2)OCO3)c1 | > 100000 | 1500 | > 100 |  |  |  | 
CCOc1ccc(C(=O)NCc2ccc3c(c2)OCO3)cc1C(=O)NCc1ccc2c(c1)OCO2 | 20000 | 493 | 51 |  |  |  | 
CCCOc1ccc(C(=O)NCc2ccc3c(c2)OCO3)cc1C(=O)NCc1ccc2c(c1)OCO2 | 27000 | 1450 | > 100 |  |  |  | 
COc1ccc(C(=O)NCc2ccc3nsnc3c2)cc1C(=O)NCc1ccc2nsnc2c1 | 21000 | 155 | 30 |  |  |  | 
O=C(O)CN(Cc1ccccc1)C(=O)c1cccc(C(=O)NCc2ccc3c(c2)OCO3)c1 | > 100000 | 915 | > 100 |  |  |  | 
CC(=O)c1ccc(C(=O)OCc2ccccc2)cc1C(=O)OCc1ccccc1 [4-Acetyl-isophthalic acid dibenzyl ester] | > 100000 | 8200 | > 100 |  |  |  | 
COc1cccc(CNC(=O)c2ccc(OC)c(C(=O)NCc3cccc(OC)c3)c2)c1 [4-Methoxy-N,N′-bis-(3-methoxy-benzyl)-isophthalamide] | > 100000 | 180 | > 100 |  |  |  | 
COc1ccc(C(=O)NCc2ccc(C)cc2)cc1C(=O)NCc1ccc(C)cc1 [4-Methoxy-N,N′-bis-(4-methyl-benzyl)-isophthalamide] | > 100000 | 7250 | > 100 |  |  |  | 
COc1ccc(C(=O)OCc2ccccc2)cc1C(=O)OCc1ccccc1 [4-Methoxy-isophthalic acid dibenzyl ester] | > 100000 | 900 | > 100 |  |  |  | 
COc1ccc(C(=O)OCc2ccncc2)cc1C(=O)OCc1ccncc1 [4-Methoxy-isophthalic acid dipyridin-4-ylmethyl ester] | > 100000 | 255 | > 100 |  |  |  | 
Nc1cc(C(=O)OCc2ccccc2)cc(C(=O)OCc2ccccc2)c1 [5-Amino-isophthalic acid dibenzyl ester] | 73000 | 1100 | > 100 |  |  |  | 
COc1ccc(CNC(=O)c2cn3c(=O)n(Cc4ccc(Cl)c(Cl)c4)c(=O)cc3s2)cc1 [6-(3,4-Dichloro-benzyl)-5,7-dioxo-6,7-dihydro-5H-thiazolo[3,2-c]pyrimidine-2-carboxylic acid 4-methoxy-benzylamide] |  |  |  | > 100000 | 84 | > 100 | 
O=C(OCc1cccc(F)c1)c1cccc(C(=O)OCc2cccc(F)c2)c1 [Isophthalic acid bis-(3-fluoro-benzyl) ester] | > 30000 | 7830 | > 100 |  |  |  | 
COc1cccc(COC(=O)c2cccc(C(=O)OCc3cccc(OC)c3)c2)c1 [Isophthalic acid bis-(3-methoxy-benzyl) ester] | > 100000 | 1150 | > 100 |  |  |  | 
O=C(OCc1ccc(F)cc1)c1cccc(C(=O)OCc2ccc(F)cc2)c1 [Isophthalic acid bis-(4-fluoro-benzyl) ester] | > 100000 | 2330 | > 100 |  |  |  | 
